According to BigSolDB 2.1:

CC(C)(c1ccc(O)cc1)c1ccc(O)cc1
solubility (mole fraction)
Conditions	273.15 K	278.15 K	283.15 K	288.15 K	293.15 K	298.15 K	303.15 K	308.15 K	313.15 K
in ethanol	0.209	0.214	0.22	0.226	0.232	0.238	0.245	0.252	0.26
in ethyl acetate	0.234	0.238	0.241	0.243	0.247	0.252	0.256	0.261	0.266
in n-butanol	0.0745	0.0832	0.094	0.106	0.119	0.135	0.147	0.166	0.183
in sec-butanol	0.0343	0.0391	0.0465	0.0564	0.0649	0.0725	0.0846	0.094	0.105
